From patent publication US4977276A, “Heteroarotinoids as anticancer agents” (The Board of Regents for the Oklahoma Agricultural and …, priority 1989, dated 1990)
Converted amounts (≈) assume the structure as drawn. “Also recorded” adds a separate entry of the source. Like-named read-outs stand apart in the source and are kept apart here. One block for each compound: values may come before it.

Experiments:
[1] = tested on: ornithine decarboxylase (ODC); assay: suppression of TPA induced ornithine decarboxylase (ODC) activity in mouse skin; format: in vivo; details: for % of Inhibition as Compared to Control: second table (60 min)
Protocol: In the ODC assay, either 13-cis-retinoic acid or trans-retinoic acid was employed. The following Table summarizes the result of the ODC assays.
Epidermus was separated, homogenized, and centrifuged at 30,000× g. Soluble epidermal ODC activity was assayed. The retinoids were evaluated in three independent experiments (3 groups of mice with 3 mice per group) and the results from the experiments were normalized (% inhibition) for comparison. […] Which standard is used appears to be relatively unimportant for determining activity in the assay, but the data presented in the Table identifies the standard for sake of clarity and accuracy of presentation. Thus, the presence of the heteroatom in these arotinoids has not eliminated biological activity. […] Consequently, the nature of the terminus group is also important.

[2] = tested on: HL-60 cells; assay: induction of differentiation of human HL-60 promyelocytic cells (NBT reduction); format: cell-based; details: HL-60, 96 h, read-out: concentration of retinoid effective in achieving a half-maximal response (ED50)
Protocol: These mature cells, unlike the uninduced HL-60, produced superoxide anion when simulated with an appropriate agent, such as TPA. The ability of the individual cells to produce superoxide can be measured by incubating cells with the water-soluble yellow dye, nitroblue tetrazolium (NBT). NBT is reduced to a water-insoluble blue-black formazan by superoxide. This formazan precipitate is associated with those cells that produce superoxide. Thus, the percentage of cells in a population that produce superoxide (NBT-positive cells) can be enumerated under a light microscope.
After incubation for 4 days at 37° C. in a humidified atmosphere of 5% CO2 and air, the capacity of the cells to reduce NBT was determined. […] This cell suspension was mixed with an equal volume of phosphate buffered saline containing 1 mg of NBT/mL and […]. The reaction mixture was incubated at 37° C. for 25 minutes, and the reaction was terminated by cooling in an ice water bath. Cytospin slides were prepared from a portion of this reaction mixture and stained with Wright-Giemsa. A minimum of 200 cells were counted under light microscopy to determine the percentage of cells with cell-associated formazan.

[3] = tested on: RPMI-7951 (melanoma); assay: Human Tumor Cell Line Bioassay (HTCL), RPMI-7951; format: cell-based; parameters: key to ED50 Values: NDT: No detectable toxicity; details: RPMI-7951, MTT, O.D. 50% of control; for IC50: Homo sapiens, read-out: ED50 Values
Protocol: (§1) The Human Tumor Cell Line Bioassay (HTCL) has been conducted in a manner similar to the procedure described by Alley and co-workers (Cancer Research 1988, 48, 589-601). A panel of 4 tumor cell lines were grown in microliter plates and various concentrations of the test compounds were added to the wells. After 4 days, the number of viable cells were measured in terms of production of formazin after incubation with MTT [3-(4,5-dimethylthiazol-2-yl)-2,5-diphenyltetrazolium bromide]. Formazin production is directly proportional to the viable cell number/well and can be measured spectrophotometrically after solubilization.
The cell lines used in the HTCL assay were A-549 (lung adenocarcinoma), HT-29 (colon adenocarcinoma), MCF-7 (breast adenocarcinoma), and RPMI-7951 (melanoma). With the exception of HT-29, these cells have been adopted to grow in B10 medium which consists of Eagle's Minimum Essential Medium supplemented with 1.5× the essential amino acids, 2× the non-essential amino acids, 1.5× vitamins, 1× L-glutamine, 10% calf bovine serum (CBS), and 1× antibiotic solution (PSF) consisting of 50 U/mL of penicillin, 50 ug/mL of streptomycin sulfate, and 50 ug/mL of amphotericin B. HT-29 cells were grown in McCoy's 5A medium supplemented with 10% CBS and 1× PSF. Stock cultures of cells were routinely grown in 25 cm^2 flasks (T-25) and passaged on a weekly basis. Cells were passaged by washing twice with phosphate buffered saline (PBS) and once with a 0.005% trypsin--0.01% EDTA solution. Trypsin-EDTA solution was added and the flask was allowed to incubate for 2-5 minutes until the cells were detached. After detaching from the flask, the cells were resuspended in their appropriate medium, counted on a Coulter Counter (ZBI), and an aliquot was transferred to new T-25 flasks. The remaining cells were used to set up the assay in 96 well microliter plates. Either 3,000 (HT-29, MCF-7) or 2,000 (A-549, RPMI-7951) cells were added to the wells in a 96-well microliter plate in 0.2 mL of medium (Day 1). On Day 2, the compounds were resuspended at 1 or 2 mg/mL in acetone, and the compounds were serially diluted 10 or 5 fold in PBS and 20 uL of each dilution starting at 100 or 200 ug/mL was added to 4 wells of the microliter plate. Doxyrubicin was used as a positive control compound. On Day 7, 20 uL of MTT (2 mg/mL) was added to each of the wells. The plates were then incubated at 37° C. for 4 hours. After incubation, the medium and MTT were removed by aspiration and 100 uL of DMSO was added to solubilize the formazin product. The plates were read on a Dynatech 700 plate reader at 540 nm, and the data were collected on an IBM PC. The data were graphed and the ED50 was determined from the graph.

[4] = tested on: HT-29 (colon adenocarcinoma); assay: Human Tumor Cell Line Bioassay (HTCL), HT-29; format: cell-based; details: HT-29, MTT, O.D. 50% of control
Protocol: as §1
The cell lines used in the HTCL assay were A-549 (lung adenocarcinoma), HT-29 (colon adenocarcinoma), MCF-7 (breast adenocarcinoma), and RPMI-7951 (melanoma). […] After detaching from the flask, the cells were resuspended in their appropriate medium, counted on a Coulter Counter (ZBI), and an aliquot was transferred to new T-25 flasks. […] The plates were read on a Dynatech 700 plate reader at 540 nm, and the data were collected on an IBM PC. The data were graphed and the ED50 was determined from the graph.

[5] = retinoid dose 17 nmol + TPA, first table, acetone + TPA control 0.90
[6] = in comparison with 13-cis-retinoic acid as the standard, or among the tested compounds
[7] = incubation 4 days at 37° C., NBT-positive cells
[8] = retinoid dose 34 nmol + TPA, second table, acetone + TPA control 1.67
[9] = with trans-retinoic acid as the standard

SMILES: CC1=C(/C=C/C(C)=C/C=C/C(C)=C\C(=O)O)C(C)(C)CCC1 [13-cis-retinoic acid, reference compound]
ODC Activity [1, 5]: 0.1 ± 0.01 nmol CO2 /30 min/mg protein
% of Inhibition as Compared to Control ([1]; retinoid dose 17 nmol + TPA): 92%
ODC Activity ([1]; retinoid dose 17 nmol + TPA, second table, acetone + TPA control 1.67): 0.14 ± 0.04 nmol CO2 /60 min/mg protein

EC50 [2, 7]: 72 nM
SMILES: CC(/C=C/C=C(\C)c1ccc2c(c1)C(C)(C)CCS2)=C\C(=O)O [(38), 7-[4.4-Dimethylthiochroman-6-yl]-3,7-dimethyl-2,4,6-heptatrienoic acid]
activity in the ODC assay in words [1, 6]: essentially equivalent in activity to the standard
ODC Activity [1, 5]: 0.1 ± 0.01 nmol CO2 /30 min/mg protein

SMILES: CCOC(=O)/C=C(C)/C=C/C=C(\C)c1ccc2c(c1)C(C)(C)CCS2 [(39), Ethyl 7-[4,4-Dimethylthiochroman-6-yl]-3,7-dimethyl-2,4,6-heptatrienoate]
activity in the ODC assay in words [1, 6]: strongest activity; also recorded: more active
ODC Activity [1, 5]: 0.0 ± 0.0 nmol CO2 /30 min/mg protein

activity in the ODC assay in words [1, 9]: less active compared to the same control
SMILES: CC(/C=C/C=C(\C)c1ccc2c(c1)C(C)(C)CCS2)=C\C(=O)OCCN1C(=O)c2ccccc2C1=O [(40), (2-Phthalimide-ethyl) 7-[4,4-Dimethylthiochroman-6-yl]-3-7-dimethyl-2,4,6-heptatrienoate]
% of Inhibition as Compared to Control ([1]; retinoid dose 34 nmol + TPA): 42%
ODC Activity [1, 8]: 0.97 ± 0.13 nmol CO2 /60 min/mg protein

activity in the ODC assay in words [1, 9]: slightly less active than the standard
EC50 [2, 7]: 200 nM
SMILES: CC(/C=C/C=C(\C)c1ccc2c(c1)C(C)(C)CCO2)=C\C(=O)O [(47), 7-[4,4-Dimethylchroman-6-yl]-3,7-dimethyl-2,4,6-heptatrienoic acid]
% of Inhibition as Compared to Control ([1]; retinoid dose 34 nmol + TPA): 74%
ODC Activity [1, 8]: 1.4 ± 0.2 nmol CO2 /60 min/mg protein

SMILES: COc1cccc2c1C(=O)c1c(O)c3c(c(O)c1C2=O)C[C@@](O)(C(=O)CO)C[C@@H]3O[C@H]1C[C@H](N)[C@H](O)[C@H](C)O1 [Doxyrubicin]
IC50 ([3]; RPMI-7951, 96 h): 0.2 µg/mL (≈ 0.368 µM)
ED50 Values ([3]; 5760 min): 0.1 µg/mL (≈ 0.184 µM)
ED50 Values ([4]; 5760 min): 0.6 µg/mL (≈ 1.1 µM)
IC50 ([4]; Homo sapiens, HT-29, 96 h, read-out: ED50 Values): 0.3 µg/mL (≈ 0.552 µM)

SMILES: CC1=C(/C=C/C(C)=C/C=C/C(C)=C/C(=O)O)C(C)(C)CCC1 [trans-retinoic acid]
EC50 [2]: 41 nM
IC50 ([3]; 96 h): 30 µg/mL (≈ 99.9 µM)
ED50 Values [3]: NDT
